How the values were obtained:
[1] = Amount of γ-CEHC excreted in urine after oral γ-tocotrienol or γ-tocopherol in vitamin E-deficient rats; format: in vivo, Sprague-Dawley strain male rats; details: oral 10 mg/0.5 ml in stripped corn oil, total over 48 hours, versus γ-tocopherol in the same amount, FIG. 2
Method: (§1) Seven-week-old Sprague-Dawley strain male rats, purchased from Nippon Clare Co., Ltd., were preliminarily bred with solid feed CE-2 (Nippon Clare Co., Ltd.) for 1 week and then bred with vitamin E-deficient feed for 4 weeks. The rats were placed in a stainless steel cage/rat, and the breeding room was maintained at a temperature of 22±1° C. in 50 % humidity. The animals were allowed feed and water ad libitum.
(§2) The feed was prepared by adding 10% corn oil (stripped corn oil) from which vitamin E had been removed by molecular distillation, to vitamin E-deficient powdery feed.
(§3) The bred vitamin E-deficient-rats were divided into 2 groups and fasted for 17 hours, and each rat in one group was orally given 10 mg/0.5 ml γ-tocotrienol dissolved in stripped corn oil, while as the control, each rat in the other group was orally given 10 mg/0.5 ml γ-tocopherol in analogous manner. After the administration, the rats in a urine collection group were placed in a metabolic cage/rat, and their urine was collected at 6-hours intervals for 48 hours during which a collection vessel was cooled on dry ice. The rats in a bile collection group were anesthetized with Nembutal in 2 hours after the administration in consideration of absorption time, and the abdomens of the rats were opened with their back fixed under anesthesia and a canula was inserted into the bile duct. […]

[2] = Amount of γ-CEHC excreted in bile after oral γ-tocotrienol or γ-tocopherol in vitamin E-deficient rats; format: in vivo, Sprague-Dawley strain male rats; details: oral 10 mg/0.5 ml in stripped corn oil, bile collected for 24 hours, versus γ-tocopherol, FIG. 3
Method: as §1, §2, §3

[3] = Effect of γ-tocotrienol on urine volume and on excretion of sodium and potassium into urine; format: in vivo, SD strain male rats; details: for volume of urine, corrected with creatinine: high-salt feed groups, FIG. 4
Method: Seven-week-old SD strain male rats (n=20) were preliminarily bred with solid feed and divided into 2 groups. One group was given vitamin E-deficient feed (AIN-76) and used as a control group. The other group was given high-salt feed prepared by adding 5% common salt to 1 kg vitamin E-deficient feed and used as a group given high-salt (high-Na) feed. Each animal in both the groups was given 20 g feed/day for 1 week and 25 g feed/day during a period of from the second to fourth weeks. 150 ml of purified water was given as drinking water, and the remainder of the water was measured. After 4 weeks, each group was further divided into 2 groups, and each rat in one group was given 10 mg γ-tocotrienol (control +γ-tocotrienol, High-Na+γ-tocotrienol) dissolved in stripped corn oil while the other group i.e. the control was given stripped corn oil (control, High-Na) for 3 consecutive days respectively, and after administration, their urine, while being frozen on dry ice, was collected at 6-hours intervals for 24 hours. The amounts of sodium and potassium in the urine were determined by the atomic absorption method and the amount of γ-CEHC by the ECD-HPLC method.

CC(C)=CCC/C(C)=C/CC/C(C)=C/CCC1(C)CCc2cc(O)c(C)c(C)c2O1 (stereo not drawn) [γ-tocotrienol, 2,7,8-trimethyl-2-(4,8,12-trimethyltrideca-3,7,11-trienyl)chroman-6-ol]
amount of γ-CEHC excreted in urine for a period of up to 48 hours [1]: significantly higher than in the group given γ-tocopherol | γ-CEHC excreted into the bile [2]: larger in the group given γ-tocotrienol than in the group given γ-tocopherol | amount of potassium excreted in urine ([3]; 4 groups (control and high-salt feed, with or without 10 mg γ-tocotrienol), atomic absorption method, FIG. 6): the influence of γ-tocotrienol administration was not observed | volume of urine, corrected with creatinine ([3]; 10 mg γ-tocotrienol for 3 consecutive days versus stripped corn oil, over 24 hours): tended to be larger in the group given γ-tocotrienol | volume of urine, corrected with creatinine ([3]; 10 mg γ-tocotrienol versus stripped corn oil, 6 to 12 hours after the administration): significantly increased for 6 to 12 hours after the administration | amount of sodium excreted in urine ([3]; high-salt group, 10 mg γ-tocotrienol versus stripped corn oil, atomic absorption method, FIG. 5): significantly larger amount of excreted sodium for a period of up to 12 hours after the administration
